{"source": "patent US20180078560A1", "about": "“USE OF 4-(4-FLUORO-2-METHOXYPHENYL)-N-{3-[(S-METHYLSULFONIMIDOYL)METHYL]PHENYL}-1,3,5-TRIAZIN-2-AMINE FOR TREATING MULTIPLE MYELOMA” (Bayer Pharma Aktiengesellschaft, priority 2015, published 2018)", "key": {"[1]": {"tested_on": "NCI-H929 multiple myeloma xenograft", "assay": "In vivo efficacy in NCI-H929 multiple myeloma xenograft model", "set-up": "species or system NOD/SCID mice", "details": "25 mg/kg/day p.o. once daily", "procedure": "The aim of the present experiments was to assess the in vivo efficacy and tolerability of Compound A′ in monotherapy in the NCI-H929 multiple myeloma xenograft model subcutaneously implanted into NOD/SCID mice.\n(§1) In vivo efficacy was determined in female NOD/SCID mice bearing subcutaneous multiple myeloma NCI-H929 xenografts. Compound A′ was assessed at one dose level in monotherapy. Anti-tumour activity and tolerability of the treated group was assessed using the vehicle control group as a reference.\nMultiple myeloma tumour fragments, derived from the NCI-H929 cell line, were obtained from xenografts in serial passage in nude mice and placed in PBS containing 10% penicillin/streptomycin. Tumour fragments (one fragment per animal; 3-4 mm edge length) were then subcutaneously implanted in the flank of NOD/SCID recipient mice under isofluorane anaesthesia.\nAt randomisation, the volume of growing tumours was initially determined. […] The result of the randomisation was documented and maintained with the experimental data Animals not randomised were euthanised. […]\nThe tumour volumes were determined by two-dimensional measurement with a caliper on the day of randomisation (day 0) and then twice weekly (i.e. on the same days on which mice were weighed). Tumour volumes were calculated according to the formulas: […]\nRelative volumes of individual tumours (RTVs) for Day x were calculated by dividing the absolute individual tumour volume on Day x (Tx) by the absolute individual tumour volume of the same tumour on Day 0 (T0) multiplied by 100%:\nAnti-tumour activity was evaluated as maximum tumour volume inhibition versus the vehicle control group.\nTumour inhibition for a particular day (T/C in %) was calculated from the ratio of the median RTV values of test versus control groups multiplied by 100.\nThe minimum (or optimum) T/C% value recorded for a particular test group during an experiment represents the maximum anti-tumour activity for the respective treatment. T/C values were calculated if at least 50% of the randomized animals in the treated group were alive on the day in question. […]"}, "JJN3": {"tested_on": "JJN3", "assay": "Proliferation assay, JJN3 cell line", "format": "cell-based", "details": "Homo sapiens, JJN-3, Multiple myeloma, after 72 hours of incubation"}, "NCI-H929": {"tested_on": "NCI-H929", "assay": "Proliferation assay, NCI-H929 cell line", "format": "cell-based", "details": "Homo sapiens, Multiple myeloma, after 72 hours of incubation"}, "OPM-2": {"tested_on": "OPM-2", "assay": "Proliferation assay, OPM-2 cell line", "format": "cell-based", "details": "Homo sapiens, Multiple myeloma, after 72 hours of incubation"}, "EJM": {"tested_on": "EJM", "assay": "Proliferation assay, EJM cell line", "format": "cell-based", "details": "Homo sapiens, Multiple myeloma, after 72 hours of incubation"}, "[2]": {"assay": "Tolerability (survival and body weight) in xenograft-bearing mice", "format": "in vivo", "procedure": "as §1\nMortality checks were conducted daily during routine monitoring.\nMice were weighed twice a week. Relative body weights of individual mice in % were calculated by dividing the individual body weight on day X (BWX) by the individual body weight on day 0 (BW0) multiplied by 100 according to the formula: […]\nGroup median relative body weights were calculated as well, considering only the weights of mice that were alive on the day in question.\nThe in vivo efficacy and tolerability of BHC's investigational compound Compound A′ was assessed in monotherapy in the NCI-H929 multiple myeloma xenograft model. NCI-H929 tumour fragments, obtained from serial passage in nude mice, were implanted subcutaneously into female NOD/SCID mice. Compound A′ was administered orally at one dose level (25 mg/kg/day) in monotherapy once daily and treatment was started once subcutaneous tumours were established. A vehicle-treated control group was included in each experiment. […] Anti-tumour activity (tumour growth inhibition) and tolerability of treatment group was assessed using the vehicle control group as a reference."}}, "note": "Entries after “also recorded” stand apart in the source; their conditions may differ.", "data": [{"smiles": "COc1cc(F)ccc1-c1ncnc(Nc2cccc(CS(C)(=N)=O)c2)n1", "note": "(single isomer, unassigned; (+)) [Compound A′, (+)-4-(4-Fluoro-2-methoxyphenyl)-N-{3-[(S-methylsulfonimidoyl)methyl]phenyl}-1,3,5-triazin-2-amine]", "values": [{"measurement": "NCI-H929 tumour growth vs vehicle control group", "setting": "[1]; Mann-Whitney-Wilcoxon U-test", "result": "significantly reduced; also recorded: significantly attenuated"}, {"measurement": "minimum T/C value", "setting": "[1]; NCI-H929 xenograft s.c. in female NOD/SCID mice, ratio of median RTV vs vehicle", "result": 5.5, "unit": "%"}, {"measurement": "anti-tumour activity rating", "setting": "[1]; NCI-H929 xenograft, rating from optimum T/C", "result": "High anti-tumour activity"}, {"measurement": "IC50", "setting": "JJN3", "result": 0.33, "unit": "µM"}, {"measurement": "IC50", "setting": "NCI-H929", "result": 0.237, "unit": "µM"}, {"measurement": "IC50", "setting": "OPM-2", "result": 0.6, "unit": "µM"}, {"measurement": "IC50", "setting": "EJM", "result": 0.2, "unit": "µM"}, {"measurement": "group median BWL (body weight loss)", "setting": "[2]; NCI-H929 xenograft-bearing NOD/SCID mice, 25 mg/kg/day p.o. once daily", "result": "≤ 2.7", "unit": "%"}, {"measurement": "tolerability profile", "setting": "[2]; multiple myeloma xenograft-bearing mice, 25 mg/kg/day p.o.", "result": "acceptable tolerability profile"}]}]}
